Experimental data: patent US12365671B2, “Crystalline hydrate of topramezone sodium salt and preparation method therefor” (ROTAM AGROCHEM INTERNATIONAL COMPANY LIMITED, priority 2021, dated 2025)

Assay: Formulation preparation behaviour (jet pulverization, granulation)
Type: physicochemical
Details: e.g. soluble granule, sodium salt
From the text: The crystalline 2.5 hydrate of topramezone sodium salt of the present invention has huge advantages over the anhydrous form of topramezone sodium salt with respect to formulation preparation. The anhydrous topramezone sodium salt can be prepared according to the preparation method of the topramezone potassium salt alike compound reported in US2002025910A. […] Furthermore, the formulation preparation process is difficult. For example, when preparing the soluble granule, creaming and caking of the ingredients frequently occurs, and granulation thus becomes difficult.

SMILES | behaviour during jet pulverization / granulation
Cc1c(C(=O)c2cnn(C)c2[O-])ccc(S(C)(=O)=O)c1C1=NOCC1.[Na+] [anhydrous topramezone sodium salt] | easy to agglomerate during jet pulverization
Cc1c(C(=O)c2cnn(C)c2[O-])ccc(S(C)(=O)=O)c1C1=NOCC1.[Na+] [crystalline 2.5 hydrate of topramezone sodium salt] | can be granulated easily
